Data taken from BindingDB's records for doi:10.1021/jm00163a069 (Merck Sharp & Dohme Research Laboratories, 1990).

Experiment: Inhibition of binding of [125I]CCK-8 to Cholecystokinin type B receptor in guinea pig brain tissues

O=C(NCC1CNc2ccccc2C(c2ccccc2F)=N1)C(O)c1ccccc1 (stereo unspecified)
IC50: > 100 µM
